According to BigSolDB 2.1:

Nc1ncnc2c1ncn2[C@@H]1O[C@H](COP(=O)(O)O)[C@@H](O)[C@H]1O
solubility (mole fraction) (in acetic acid, 288.15 K): 7.85e-05 | solubility (mole fraction) (in acetic acid, 294.15 K): 0.000122 | solubility (mole fraction) (in acetic acid, 300.15 K): 0.000186 | solubility (mole fraction) (in acetic acid, 306.15 K): 0.000276 | solubility (mole fraction) (in acetic acid, 312.15 K): 0.000395 | solubility (mole fraction) (in acetic acid, 318.15 K): 0.000564 | solubility (mole fraction) (in acetic acid, 324.15 K): 0.00075 | solubility (mole fraction) (in acetic acid, 330.15 K): 0.000967 | solubility (mole fraction) (in ethanol, 288.15 K): 5.3e-06 | solubility (mole fraction) (in ethanol, 294.15 K): 5.61e-06 | solubility (mole fraction) (in ethanol, 300.15 K): 6.75e-06 | solubility (mole fraction) (in ethanol, 306.15 K): 7.73e-06 | solubility (mole fraction) (in ethanol, 312.15 K): 9.24e-06 | solubility (mole fraction) (in ethanol, 318.15 K): 1.06e-05 | solubility (mole fraction) (in ethanol, 324.15 K): 1.24e-05 | solubility (mole fraction) (in ethanol, 330.15 K): 1.54e-05 | solubility (mole fraction) (in methanol, 288.15 K): 8.59e-06 | solubility (mole fraction) (in methanol, 294.15 K): 9.35e-06 | solubility (mole fraction) (in methanol, 300.15 K): 1.04e-05 | solubility (mole fraction) (in methanol, 306.15 K): 1.15e-05 | solubility (mole fraction) (in methanol, 312.15 K): 1.3e-05 | solubility (mole fraction) (in methanol, 318.15 K): 1.41e-05 | solubility (mole fraction) (in methanol, 324.15 K): 1.65e-05 | solubility (mole fraction) (in methanol, 330.15 K): 1.79e-05 | solubility (mole fraction) (in water, 288.2 K): 0.000257 | solubility (mole fraction) (in water, 294.2 K): 0.000336 | solubility (mole fraction) (in water, 300.2 K): 0.000412 | solubility (mole fraction) (in water, 306.2 K): 0.000526 | solubility (mole fraction) (in water, 312.2 K): 0.000636 | solubility (mole fraction) (in water, 318.2 K): 0.000768 | solubility (mole fraction) (in water, 324.2 K): 0.000934
